According to patent US10035805B2, “Tricyclic triazolic compounds” (LABORATORIOS DEL DR. ESTEVE S.A., priority 2014, dated 2018):
Structures can show the parent of a compound that is named as a salt.

target: T1, sigma-1 receptor (Cavia porcellus, UniProt Q60492); assay: Sigma-1 receptor radioligand binding assay with [3H]-(+)-pentazocine in guinea pig brain membranes; settings: radioligand [3H]-(+)-pentazocine at 5.0 nM, 150 min at 37° C., nonspecific binding with 1 μM haloperidol
T1 construct: Guinea pig brains were homogenized in 10 vols; (w/v) of Tris-HCl 50 mM 0.32 M sucrose; from tissue; host or cells: guinea pig brain membranes
Procedure: Brain membrane preparation and binding assays for the al-receptor were performed as described (DeHaven-Hudkins, D. L., L. C. Fleissner, and F. Y. Ford-Rice, 1992, Characterization of the binding of [^3H](+)pentazocine to a recognition sites in guinea pig brain, Eur. J. Pharmacol. 227, 371-378) with some modifications. Guinea pig brains were homogenized in 10 vols. (w/v) of Tris-HCl 50 mM 0.32 M sucrose, pH 7.4, with a Kinematica Polytron PT 3000 at 15000 r.p.m. for 30 s. The homogenate was centrifuged at 1000 g for 10 min at 4° C. and the supernatants collected and centrifuged again at 48000 g for 15 min at 4° C. The pellet was resuspended in 10 volumes of Tris-HCl buffer (50 mM, pH 7.4), incubated at 37° C. for 30 min, and centrifuged at 48000 g for 20 min at 4° C. Following this, the pellet was resuspended in fresh Tris-HCl buffer (50 mM, pH 7.4) and stored on ice until use.
The radioligand used was [^3H]-(+)-pentazocine at 5.0 nM and the final volume was 200 μl. The incubation was initiated with the addition of 100 μl of membrane at a final tissue concentration of approximately 5 mg tissue net weight/mL and the incubation time was 150 m. at 37° C. After incubation, the membranes were collected onto pretreated glass fiber filterplate (MultiScreen-FC, Millipore), with polyethylenimine 0.1%. The filters were washed two times with 200 μl of washing buffer (50 mM Tris Cl, pH=7.4) and then 25 μl of Ecoscint H liquid scintillation cocktail were added. Microplates were allowed to set for several hours and then quantified by liquid scintillation spectrophotometry (1450 Microbeta, Wallac). Nonspecific binding was determined with 1 μM haloperidol.

T1 sequence (Q60492 whole entry): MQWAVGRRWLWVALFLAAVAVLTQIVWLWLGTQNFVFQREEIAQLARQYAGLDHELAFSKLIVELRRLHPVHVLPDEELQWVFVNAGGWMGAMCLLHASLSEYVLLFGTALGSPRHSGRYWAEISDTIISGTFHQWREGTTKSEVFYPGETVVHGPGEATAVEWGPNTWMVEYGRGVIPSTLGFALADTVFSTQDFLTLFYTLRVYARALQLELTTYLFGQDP

| SMILES | Ki [nM] |
| --- | --- |
| c1ccc(CN2C[C@@H]3[C@H](C2)N(CC2CC2)CCc2c(-c4ccccc4)nnn23)cc1 (racemic) [Example 32, (rac) (6a,9a-cis)-8-benzyl-6-(cyclopropylmethyl)-3-phenyl-4,5,6,6a,7,8,9,9a-octahydropyrrolo[3,4-b][1,2,3]triazolo[1,5-d][1,4]diazepine hydrochloride] | < 100 |
| c1ccc(-c2nnn3c2CN[C@@H]2CN(C4CCOCC4)C[C@H]23)cc1 (racemic) [Example 19, (rac) (5a,8a-trans)-3-phenyl-7-(tetrahydro-2H-pyran-4-yl)-5,5a,6,7,8,8a-hexahydro-4H-pyrrolo[3,4-e][1,2,3]triazolo[1,5-a]pyrazine hydrochloride] | > 500 |
| c1ccc(CN2C[C@@H]3NCc4c(-c5ccccc5)nnn4[C@H]3C2)cc1 [Example 21, (5aS,8aS)-7-benzyl-3-phenyl-5,5a,6,7,8,8a-hexahydro-4H-pyrrolo[3,4-e][1,2,3]triazolo[1,5-a]pyrazine hydrochloride] | > 500 |
| O=C1N[C@H]2CN(Cc3ccccc3)C[C@H]2n2nnc(-c3ccccc3)c21 (racemic) [Example 2, (rac)-(5a,8a-cis)-7-benzyl-3-phenyl-5,5a,6,7,8,8a-hexahydro-4H-pyrrolo[3,4-e][1,2,3]triazolo[1,5-a]pyrazin-4-one] | > 500 |
| Fc1ccc(CN2C[C@@H]3NCc4c(-c5ccccc5)nnn4[C@H]3C2)cc1 [Example 23, (5aS,8aS)-7-(4-fluorobenzyl)-3-phenyl-5,5a,6,7,8,8a-hexahydro-4H-pyrrolo[3,4-e][1,2,3]triazolo[1,5-a]pyrazine hydrochloride] | > 500 |
| CC(C)(C)OC(=O)N1Cc2c(-c3ccccc3)nnn2[C@@H]2CNC[C@H]21 (racemic) [Example 6, (rac)-(5a,8a-trans)-tert-butyl-3-phenyl-6,7,8,8a-tetrahydro-4H-pyrrolo[3,4-e][1,2,3]triazolo[1,5-a]pyrazine-5(5aH)-carboxylate] | > 500 |
| FC(F)(F)c1ccc(CN2C[C@@H]3[C@@H](C2)NCc2c(-c4ccccc4)nnn23)cc1 [Example 26, (5aR,8aR)-3-phenyl-7-(4-(trifluoromethyl)benzyl)-5,5a,6,7,8,8a-hexahydro-4H-pyrrolo[3,4-e][1,2,3]triazolo[1,5-a]pyrazine hydrochloride] | 100 to 500 |
| Fc1ccccc1-c1nnn2c1CN[C@@H]1CN(Cc3ccccc3)C[C@H]12 [Example 29, (5aR,8aR)-7-benzyl-3-(2-fluorophenyl)-5,5a,6,7,8,8a-hexahydro-4H-pyrrolo[3,4-e][1,2,3]triazolo[1,5-a]pyrazine hydrochloride] | < 100 |
| CCCCCN1C[C@@H]2[C@@H](C1)n1nnc(-c3ccccc3)c1CN2CCC (racemic) [Example 11, (rac) (5a,8a-trans)-7-pentyl-3-phenyl-5-propyl-5,5a,6,7,8,8a-hexahydro-4H-pyrrolo[3,4-e][1,2,3]triazolo[1,5-a]pyrazine hydrochloride] | < 100 |
| Clc1ccc(CN2C[C@@H]3[C@@H](C2)NCc2c(-c4ccccc4)nnn23)cc1 [Example 25, (5aR,8aR)-7-(4-chlorobenzyl)-3-phenyl-5,5a,6,7,8,8a-hexahydro-4H-pyrrolo[3,4-e][1,2,3]triazolo[1,5-a]pyrazine hydrochloride] | < 100 |
| c1ccc(-c2nnn3c2CN[C@@H]2CN(CC4CC4)C[C@H]23)cc1 (racemic) [Example 18, (rac) (5a,8a-trans)-7-(cyclopropyl-methyl)-3-phenyl-5,5a,6,7,8,8a-hexahydro-4H-pyrrolo[3,4-e][1,2,3]triazolo[1,5-a]pyrazine hydrochloride] | 100 to 500 |
| c1ccc(CN2C[C@@H]3NCc4c(-c5ccccc5)nnn4[C@@H]3C2)cc1 (racemic) [Example 3, (rac) (5a,8a-cis)-7-benzyl-3-phenyl-5,5a,6,7,8,8a-hexahydro-4H-pyrrolo[3,4-e][1,2,3]triazolo[1,5-a]pyrazine] | 100 to 500 |
| c1ccc(-c2nnn3c2CN[C@@H]2CN(CC4CCOCC4)C[C@H]23)cc1 [Example 27, (5aR,8aR)-3-phenyl-7-((tetrahydro-2H-pyran-4-yl)methyl)-5,5a,6,7,8,8a-hexahydro-4H-pyrrolo[3,4-e][1,2,3]triazolo[1,5-a]pyrazine hydrochloride] | 100 to 500 |
| CS(=O)(=O)N1Cc2c(-c3ccccc3)nnn2[C@@H]2CN(Cc3ccccc3)C[C@H]21 (racemic) [Example 20, (rac) (5a,8a-trans)-7-benzyl-5-(methylsulfonyl)-3-phenyl-5,5a,6,7,8,8a-hexahydro-4H-pyrrolo[3,4-e][1,2,3]triazolo[1,5-a]pyrazine hydrochloride] | 100 to 500 |
| CC(=O)N1Cc2c(-c3ccccc3)nnn2[C@@H]2CN(Cc3ccccc3)C[C@H]21 (racemic) [Example 4, (rac) 1-((5a,8a-trans)-7-benzyl-3-phenyl-6,7,8,8a-tetrahydro-4H-pyrrolo[3,4-e][1,2,3]triazolo[1,5-a]pyrazin-5(5aH)-yl)ethanone hydrochloride] | 100 to 500 |
| Fc1ccc(CN2C[C@@H]3[C@@H](C2)NCc2c(-c4ccccc4)nnn23)cc1 [Example 24, (5aR,8aR)-7-(4-fluorobenzyl)-3-phenyl-5,5a,6,7,8,8a-hexahydro-4H-pyrrolo[3,4-e][1,2,3]triazolo[1,5-a]pyrazine hydrochloride] | < 100 |
| CCCN1Cc2c(-c3ccccc3)nnn2[C@@H]2CN(Cc3ccccc3)C[C@@H]21 (racemic) [Example 13, (rac) (5a,8a-cis)-7-benzyl-3-phenyl-5-propyl-5,5a,6,7,8,8a-hexahydro-4H-pyrrolo[3,4-e][1,2,3]triazolo[1,5-a]pyrazine] | 100 to 500 |
| CCCN1C(=O)c2c(-c3ccccc3)nnn2[C@@H]2CN(Cc3ccccc3)C[C@@H]21 (racemic) [Example 5, (rac)-(5a,8a-cis)-7-benzyl-3-phenyl-5-propyl-5,5a,6,7,8,8a-hexahydro-4H-pyrrolo[3,4-e][1,2,3]triazolo[1,5-a]pyrazin-4-one] | > 500 |
| O=C1N[C@H]2CNC[C@H]2n2nnc(-c3ccccc3)c21 (racemic) [Example 36, (rac)-(5a,8a-cis)-3-phenyl-5,5a,6,7,8,8a-hexahydro-4H-pyrrolo[3,4-e][1,2,3]triazolo[1,5-a]pyrazin-4-one hydrochloride] | > 500 |
| c1ccc(CN2C[C@@H]3NCc4c(-c5ccccc5)nnn4[C@@H]3C2)cc1 [Example 15, (5aS,8aR)-7-benzyl-3-phenyl-5,5a,6,7,8,8a-hexahydro-4H-pyrrolo[3,4-e][1,2,3]triazolo[1,5-a]pyrazine] | < 100 |
| CN1Cc2c(-c3ccccc3)nnn2[C@@H]2CN(Cc3ccccc3)C[C@@H]21 (racemic) [Example 12, (rac) (5a,8a-cis)-7-benzyl-5-methyl-3-phenyl-5,5a,6,7,8,8a-hexahydro-4H-pyrrolo[3,4-e][1,2,3]triazolo[1,5-a]pyrazine] | < 100 |
| Fc1ccccc1-c1nnn2c1CN[C@@H]1CN(Cc3ccccc3)C[C@H]12 (racemic) [Example 28, (rac) (5a,8a-trans)-7-benzyl-3-(2-fluorophenyl)-5,5a,6,7,8,8a-hexahydro-4H-pyrrolo[3,4-e][1,2,3]triazolo[1,5-a]pyrazine hydrochloride] | < 100 |
| c1ccc(CN2C[C@@H]3[C@@H](C2)NCc2c(-c4ccccc4)nnn23)cc1 [Example 22, (5aR,8aR)-7-benzyl-3-phenyl-5,5a,6,7,8,8a-hexahydro-4H-pyrrolo[3,4-e][1,2,3]triazolo[1,5-a]pyrazine hydrochloride] | < 100 |
| CN1Cc2c(-c3ccccc3)nnn2[C@@H]2CN(Cc3ccccc3)C[C@H]21 (racemic) [Example 16, (rac) (5a,8a-trans)-7-benzyl-5-methyl-3-phenyl-5,5a,6,7,8,8a-hexahydro-4H-pyrrolo[3,4-e][1,2,3]triazolo[1,5-a]pyrazine hydrochloride] | < 100 |
| CN1C(=O)c2c(-c3ccccc3)nnn2[C@@H]2CN(Cc3ccccc3)C[C@@H]21 (racemic) [Example 37, (rac)-(5a,8a-cis)-7-benzyl-5-methyl-3-phenyl-5,5a,6,7,8,8a-hexahydro-4H-pyrrolo[3,4-e][1,2,3]triazolo[1,5-a]pyrazin-4-one] | > 500 |
| CCCCCN1C[C@@H]2NCc3c(-c4ccccc4)nnn3[C@@H]2C1 (racemic) [Example 14, (rac) (5a,8a-cis)-7-pentyl-3-phenyl-5,5a,6,7,8,8a-hexahydro-4H-pyrrolo[3,4-e][1,2,3]triazolo[1,5-a]pyrazine] | < 100 |
| c1ccc(CN2C[C@@H]3NCCc4c(-c5ccccc5)nnn4[C@@H]3C2)cc1 [Example 35, (6aS,9aR)-8-benzyl-3-phenyl-4,5,6,6a,7,8,9,9a-octahydropyrrolo[3,4-b][1,2,3]triazolo [1,5-d][1,4]-diazepine hydrochloride] | < 100 |
